Assay results: ChEMBL document CHEMBL4651402, “Screening of ~5500 FDA-approved drugs and clinical candidates for anti-SARS-CoV-2 activity” (2021)

System: SARS-CoV-2
Assay: microbe, parasite or virus in culture
Conditions: Severe acute respiratory syndrome coronavirus 2, Vero C1008, 48 h

SMILES	IC50	IC50 (read-out: pIC50 (converted))
CC1=C(CC(=O)O)c2cc(F)ccc2/C1=C\c1ccc(S(C)(=O)=O)cc1 [EXISULIND]	> 20 µM	> 20 µM
O=C1[C@H](CC[C@H](O)c2ccc(F)cc2)[C@@H](c2ccc(O)cc2)N1c1ccc(F)cc1 [EZETIMIBE]	> 20 µM	> 20 µM
Cc1[nH]cnc1C[C@H]1CCc2c(C)c3ccccc3n2C1=O [FABESETRON]	> 20 µM	> 20 µM
C=CCN1CCC[C@H]1CNC(=O)c1cc(CCCF)cc(OC)c1OC [FALLYPRIDE]	> 20 µM	> 20 µM
CC(=O)OCC(CCn1cnc2cnc(N)nc21)COC(C)=O [FAMCICLOVIR]	> 20 µM	> 20 µM
NC(N)=Nc1nc(CSCC/C(N)=N/S(N)(=O)=O)cs1 [FAMOTIDINE]	> 20 µM	> 20 µM
CC(C)c1c(CN(C)C(C)Cc2ccccc2)n(C)n(-c2ccccc2)c1=O (stereo not drawn) [FAMPROFAZONE]	> 20 µM	> 20 µM
O=S1(=O)c2cccc3cccc(c23)N1CCCN1CCN(c2ccc(F)cc2)CC1 [FANANSERIN]	> 20 µM	> 20 µM
CN(C)CCCn1c(=O)c2ccccc2c2ccccc21 [FANTRIDONE]	> 20 µM	> 20 µM
O=C(c1ccc2nonc2c1)N1CCCCC1 [FARAMPATOR]	> 20 µM	> 20 µM
O=S(=O)(c1cccc2cnccc12)N1CCCNCC1 [FASUDIL]	> 20 µM	> 20 µM
Cc1cnc(Nc2ccc(OCCN3CCCC3)cc2)nc1Nc1cccc(S(=O)(=O)NC(C)(C)C)c1 [FEDRATINIB]	> 20 µM	> 20 µM
NC(=O)OCC(COC(N)=O)c1ccccc1 [FELBAMATE]	> 20 µM	> 20 µM
O=C(O)Cc1ccc(-c2ccccc2)cc1 [FELBINAC]	> 20 µM	> 20 µM
CCOC(=O)C1=C(C)NC(C)=C(C(=O)OC)C1c1cccc(Cl)c1Cl (stereo not drawn) [FELODIPINE]	> 20 µM	> 20 µM
CCOC(=O)C(CC)(C(=O)NCCN(CC)CC)c1ccccc1 (stereo not drawn) [FENALAMIDE]	> 20 µM	> 20 µM
O=C(O)c1ccccc1Nc1ccccc1 [FENAMIC ACID]	> 20 µM	> 20 µM
COC(=O)Nc1nc2cc(Sc3ccccc3)ccc2[nH]1 [FENBENDAZOLE]	> 20 µM	> 20 µM
O=C(O)CCC(=O)c1ccc(-c2ccccc2)cc1 [FENBUFEN]	> 20 µM	> 20 µM
CCNC1C2CCC(C2)C1c1ccccc1 (stereo not drawn) [FENCAMFAMIN]	> 20 µM	> 20 µM

SMILES	IC50	IC50 (read-out: pIC50 (converted))
O=C(O)Cc1csc(-c2ccc(Cl)cc2)n1 [FENCLOZIC ACID]	> 20 µM	> 20 µM
CC(NCCC(c1ccccc1)c1ccccc1)c1ccccc1 (stereo not drawn) [FENDILINE]	> 20 µM	> 20 µM
C[C@H]1CN(C2COC2)CCN1c1ccc(Nc2cc(-c3ccnc(N4CCn5c(cc6c5CC(C)(C)C6)C4=O)c3CO)cn(C)c2=O)nc1 [FENEBRUTINIB]	> 20 µM	> 20 µM
CCNC(C)Cc1cccc(C(F)(F)F)c1 (stereo not drawn) [FENFLURAMINE]	> 20 µM	> 20 µM
CCCC/N=C(/c1cc(Cl)ccc1O)c1ccccc1Cl [FENGABINE]	> 20 µM	> 20 µM
CC1NC(=O)COC1c1ccccc1 (stereo not drawn) [FENMETRAMIDE]	> 20 µM	> 20 µM
CC(C)(Oc1ccc(C(=O)c2ccc(Cl)cc2)cc1)C(=O)O [FENOFIBRIC ACID]	> 20 µM	> 20 µM
Oc1ccc(C2CNCCc3c2cc(O)c(O)c3Cl)cc1 (stereo not drawn) [FENOLDOPAM]	> 20 µM	> 20 µM
CC(C(=O)O)c1cccc(Oc2ccccc2)c1 (stereo not drawn) [FENOPROFEN]	> 20 µM	> 20 µM
O=C(CN1CCN(Cc2ccc3c(c2)OCO3)CC1)N1c2ccccc2Sc2ccccc21 [FENOVERINE]	> 20 µM	> 20 µM
CC(Cc1ccc(C(C)(C)C)cc1)CN1CCCCC1 (stereo not drawn) [FENPROPIDIN]	> 20 µM	> 20 µM
NS(=O)(=O)c1cc2c(cc1Cl)NC(c1ccccc1)NC2=O (stereo not drawn) [FENQUIZONE]	> 20 µM	> 20 µM
O=C(O)Cc1sc(-c2ccccc2)nc1-c1ccc(Cl)cc1 [FENTIAZAC]	> 20 µM	> 20 µM
Oc1ccc(Cl)cc1Sc1cc(Cl)ccc1O [FENTICLOR]	> 20 µM	> 20 µM
Clc1ccc(C(Cn2ccnc2)OCc2ccc(Sc3ccccc3)cc2)c(Cl)c1 (stereo not drawn) [FENTICONAZOLE]	> 20 µM	> 20 µM
CC(C)=CCC1C(=O)N(c2ccccc2)N(c2ccccc2)C1=O [FEPRAZONE]	> 20 µM	> 20 µM
COc1cc(/C=C/C(=O)O)ccc1O [FERULATE]	> 20 µM	> 20 µM
COc1cc(CCc2cc(NC(=O)c3ccc(N4C[C@@H](C)N[C@@H](C)C4)cc3)n[nH]2)cc(OC)c1 [FEXAGRATINIB]	> 20 µM	> 20 µM
CC(C)(C(=O)O)c1ccc(C(O)CCCN2CCC(C(O)(c3ccccc3)c3ccccc3)CC2)cc1 (stereo not drawn) [FEXOFENADINE]	> 20 µM	> 20 µM
